How the values were obtained:
[1] = target: T1, GAL4AaEcR-DEF/VP16HsRXRβ-EF (Aedes aegypti, UniProt P49880); test: Transactivation reporter assay, AaEcR based switch (1.4) in NIH3T3 cells; assay type: cell-based; conditions: mammalian cells; FIGS. 2-5
T1 construct: expressed in transfected cells; host or cells: mouse NIH3T3 cells
T1 sequence (P49880 405-776 limits assumed): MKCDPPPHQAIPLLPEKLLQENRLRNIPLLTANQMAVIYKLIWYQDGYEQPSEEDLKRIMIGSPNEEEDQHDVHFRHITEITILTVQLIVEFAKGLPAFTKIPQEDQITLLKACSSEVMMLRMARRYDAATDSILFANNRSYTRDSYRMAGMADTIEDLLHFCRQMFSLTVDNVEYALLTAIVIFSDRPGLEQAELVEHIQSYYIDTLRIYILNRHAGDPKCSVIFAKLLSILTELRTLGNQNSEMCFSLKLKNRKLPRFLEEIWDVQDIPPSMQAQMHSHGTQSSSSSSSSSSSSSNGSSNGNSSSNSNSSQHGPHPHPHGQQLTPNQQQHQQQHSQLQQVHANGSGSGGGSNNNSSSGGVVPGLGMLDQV
T1 sequence (P28702 299-533 partner limits assumed): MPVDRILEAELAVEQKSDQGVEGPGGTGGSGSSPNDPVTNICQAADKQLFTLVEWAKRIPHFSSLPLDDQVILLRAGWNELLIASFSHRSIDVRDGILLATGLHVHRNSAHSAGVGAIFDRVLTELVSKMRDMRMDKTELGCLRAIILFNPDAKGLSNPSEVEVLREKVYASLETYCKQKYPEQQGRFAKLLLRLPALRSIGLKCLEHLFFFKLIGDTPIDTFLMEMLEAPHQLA
Procedure: Total relative light units (RLU) are shown.
Twenty μl of lysate were assayed.

[2] = test system: GAL4 DBD-CfEcR(DEF)/VP16AD-MmRXRE; conditions: CHO 13B3 clone, 48 h, average of two wells
How it was run: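 CHO 13B3 clone stably expressing GAL4 DBD-CfEcR(DEF) and VP16AD-MmRXRE with GAL4 RE-luciferase reporter; ligands from DMSO stocks diluted 300-fold. Luciferase read 48 h after treatment; duplicate wells averaged, fold induction = RLU ligand-treated / RLU DMSO-treated.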

Gal4DBD/AaEcR (DEF) = target: T2, Gal4DBD/AaEcR (DEF) (Aedes aegypti, UniProt P49880); test: cell-based; assay type: cell-based; conditions: 33 μM; 3T3 cells; 48 h; average of two wells
T2 construct: The wildtype D, E, and F domains from mosquito Aedes aegypti EcR; expressed in transfected cells; host or cells: 3T3 cells
How it was run: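 Mouse 3T3 cells transiently co-transfected with Gal4DBD/AaEcR (DEF) and pFRLuc (5× GAL4 response element, firefly luciferase reporter). Ligand added in serum medium 4 h after transfection; single-dose testing at 33 μM.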

CfEcR + LmUSP = CfEcR + LmUSP in 3T3 cells, reporter assayed 48 h after ligand
Procedure: 1.9—Gal4CfEcR-DEF/VP16LmRXR-EF: This construct was prepared in the same way as switch 1.1 except LmRXR-EF (SEQ ID NO: 18) was used in place of HsRXRβ-LmRXREF chimera.
To determine if any of the compounds shown in Table 1 and Table 2 can act as inducers of reporter gene activity in a transactivation assay, these compounds were tested in NIH3T3 cells transfected with pFRLUC reporter and gene expression cassettes, 1.1 to 1.8 described in Example 1. […] At 48 hr after adding ligand, the cells were harvested and reporter activity was assayed using Dual Luciferase assay kit (Promega carporation). Total relative light units (RLU) are shown. Standard methods for culture and maintenance of the cells were followed.
Transfections: DNAs corresponding to the various switch constructs outlined in Example I, specifically switches 1.1 through 1.8, were transfected into mouse NIH3T3 cells (ATCC) as follows. Cells were harvested when they reached 50% confluency and plated in 6-, 12- or 24-well plates at 125,000, 50,000, or 25,000 cells, respectively, in 2.5, 1.0, or 0.5 ml of growth medium containing 10% fetal bovine serum (FBS), respectively. The next day, the cells were rinsed with growth medium and transfected for four hours. […] For 12-well plates, 4 μl of Superfect™ was mixed with 100 μl of growth medium. 1.0 μg of reporter construct and 0.25 μg of each receptor construct of the receptor pair to be analyzed were added to the transfection mix. A second reporter construct was added [pTKRL (Promega), 0.1 μg/transfection mix] that comprises a Renilla luciferase gene operably linked and placed under the control of a thymidine kinase (TK) constitutive promoter and was used for normalization. The contents of the transfection mix were mixed in a vortex mixer and let stand at room temperature for 30 min. At the end of incubation, the transfection mix was added to the cells maintained in 400 μl growth medium. The cells were maintained at 37° C. and 5% CO2 for four hours. At the end of incubation, 500 μl of growth medium containing 20% FBS and either dimethylsulfoxide (DMSO; control) or a DMSO solution of 0.1, 1, and 10 μM ligand was added and the cells were maintained at 37° C. and 5% CO2 for 48 hours. The cells were harvested and reporter activity was assayed. The same procedure was followed for 6 and 24 well plates as well except all the reagents were doubled for 6 well plates and reduced to half for 24-well plates.
Ligands: All ligands were dissolved in DMSO and the final concentration of DMSO was maintained at 0.1% in both controls and treatments.
Reporter Assays: Cells were harvested 48 hours after adding ligands. 125, 250, or 500 μl of passive lysis buffer (part of Dual-luciferase™ reporter assay system from Promega Corporation) were added to each well of 24- or 12- or 6-well plates respectively. The plates were placed on a rotary shaker for 15 minutes. Twenty μl of lysate were assayed. Luciferase activity was measured using Dual-luciferase™ reporter assay system from Promega Corporation following the manufacturer's instructions.

## C[C@H]1C[C@H](Nc2ccc(F)cc2)c2cc(F)ccc2N1C(=O)c1ccc(F)c(C(F)(F)F)c1 (relative stereo) [Compound I-5]
[1]
  Activity on AaEcR based switches: very active
[2]
  Fold Induction Average, 13B3V1 Assay 33 μM: 1 fold
Gal4DBD/AaEcR (DEF)
  Fold Induction Average, AA_3T3V1 Assay 33 μM: 366 fold
CfEcR + LmUSP
  Fold Induction (10 μM): 69 fold
